Laboratory results from article PMC7317212 (Chemmedchem, 2020).

Assays:
mGAT1 [1] = biological target: T1, mGAT1 (Mus musculus, UniProt P31648); test: MS Binding Assay with NO711 as native MS marker; conditions: for Ki: MS Binding Assay, NO711 marker, pKi±SEM, read-out: pK i mGAT1 (converted); for remaining activity at 100 µM: in presence of 100 μM compound, read-out: remaining specific NO711 binding (mGAT1)
T1 construct: expressed in transfected cells; host or cells: HEK293
Procedure: (§1) For compounds with pIC50 ([^3H]GABA uptake assay) or pK i (MS Binding Assays) values close to or above 5.0, these experiments were repeated twice and SEM have been calculated.
MS Binding Assays: The MS Binding Assays were performed with mGAT1 membrane preparations obtained from a stably mGAT1 expressing HEK293 cell line and NO711 as unlabeled marker in competitive binding experiments as previously described in detail.34 In short, test compounds were investigated at 7 concentrations in presence of 10 nM NO 711 in competition experiments. Non specific binding was defined as binding remaining in the presence of 100 mM GABA. Incubation was terminated by transfer of 200 μL per well onto a 96‐well filter plate (Acroprep, glass fibre, 1.0 μm, 350 μL, Pall, Dreieich, Germany) with a 12 channel pipette. After rapid vacuum‐filtration the filters were washed with ice cold 0.9 % NaCl (5×150 μL) and dried at 50 °C for 60 min. Afterwards, the filters were eluted with 100 μL methanol containing [^2H10]NO711 (1.4 nM) as internal standard per well into a deep‐well plate by application of vacuum. This step was repeated twice resulting in a total elution volume of 300 μL. Finally, a volume of 130 μL ammonium formate buffer (10 mM, pH 7.0) was added per well and the generated samples analyzed by LC‐ESI‐MS/MS using a API 3200 as described in detail previously.40

mGAT3 = biological target: T2, mGAT3 (Mus musculus, UniProt P31649); test: [^3H]GABA uptake assay, HEK293 cells expressing mGAT3; format: cell-based; conditions: for IC50: [^3H]GABA uptake, pIC50±SEM; for remaining activity at 100 µM: HEK293, in presence of 100 μM compound
T2 construct: expressed in transfected cells; host or cells: HEK293
T2 sequence (P31649 1-602): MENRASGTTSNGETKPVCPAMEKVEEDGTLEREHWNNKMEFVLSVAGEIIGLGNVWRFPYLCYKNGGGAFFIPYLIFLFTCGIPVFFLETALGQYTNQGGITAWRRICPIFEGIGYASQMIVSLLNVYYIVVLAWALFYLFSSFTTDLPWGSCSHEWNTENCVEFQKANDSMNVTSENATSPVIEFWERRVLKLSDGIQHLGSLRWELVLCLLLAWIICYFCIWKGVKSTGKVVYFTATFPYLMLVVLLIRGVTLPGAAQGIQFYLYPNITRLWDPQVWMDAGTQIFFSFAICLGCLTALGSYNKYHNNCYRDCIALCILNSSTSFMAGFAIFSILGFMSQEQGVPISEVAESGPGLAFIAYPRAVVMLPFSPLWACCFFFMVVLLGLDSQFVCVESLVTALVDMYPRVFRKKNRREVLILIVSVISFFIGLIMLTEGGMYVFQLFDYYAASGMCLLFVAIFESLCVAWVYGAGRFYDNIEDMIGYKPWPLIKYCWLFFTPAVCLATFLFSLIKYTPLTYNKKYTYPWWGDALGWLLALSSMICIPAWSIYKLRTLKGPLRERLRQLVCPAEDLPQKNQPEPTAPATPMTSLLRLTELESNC
Procedure: as §1
(§2) [^3H]GABA uptake assays: The [^3H]GABA uptake assays were performed according to Kragler et al.33 Cells were grown in 150 cm^2 plates to a confluence of 70–90 % up to passage 25. After detachment the cells were centrifuged 5 min at 500×g, washed for three times in phosphate buffered saline and, finally, resuspended in Krebs buffer (2.5 mM CaCl2, 1.2 mM MgSO4, 1.2 mM KH2PO4, 4.7 mM KCl, 11 mM glucose, 25 mM Tris, 119 mM NaCl, pH 7.2). The uptake assays were performed with aliquots of the resulting cell suspension (about 100000–200000 cells per well) in a total volume of 250 μl in 96 well 2.2 mL deep well plates. The cells were equilibrated for 25 min in Krebs buffer in the presence of the test compound at 37 °C in a gently shaking water bath. […] After addition of 25 μl of a solution containing [^3H]GABA (2.22 TBq/mmol, ARC, St Louis, MO, USA) and unlabeled GABA in Krebs (final concentration 8 nM [^3H]GABA and 32 nM unlabeled GABA for mGAT1, mGAT3, mGAT4 and 20 nM [^3H]GABA and 20 nM unlabeled GABA for mGAT2) the cells were incubated for further 4 min (mGAT1, mGAT3, mGAT4) or 10 minutes (mGAT2), respectively. The incubation was stopped by filtration through Sartorius MGC micro glass fiber filters pre‐soaked for 1 h in 0.9 % NaCl by means of a Brandell MWXR‐96TI cell harvester (Brandell, Gaithersburg, MD, USA) under reduced pressure. The filters were rinsed two times with cold 0.9 % NaCl and subsequently transferred to 96 well sample plates (Perkin Elmer LAS, Boston, MA, USA). After addition of 200 μl Rotiszint Eco Plus (Roth, Karlsruhe, Germany) per well the radioactivity was determined in a microbeta liquid scintillation counter (Perkin Elmer LAS, Boston, MA, USA). Non‐specific uptake was determined in presence of 10 mM GABA for mGAT1, mGAT3 and mGAT4 or 100 mM GABA for mGAT2, respectively. The results are expressed as means±S.E.M. of at least three separate experiments, each carried out in triplicate.

mGAT4 = biological target: T3, mGAT4 (Mus musculus, UniProt P31650); test: [^3H]GABA uptake assay, HEK293 cells expressing mGAT4; format: cell-based; conditions: for IC50: [^3H]GABA uptake, pIC50±SEM; for remaining activity at 100 µM: HEK293
T3 construct: expressed in transfected cells; host or cells: HEK293
T3 sequence (P31650 1-627): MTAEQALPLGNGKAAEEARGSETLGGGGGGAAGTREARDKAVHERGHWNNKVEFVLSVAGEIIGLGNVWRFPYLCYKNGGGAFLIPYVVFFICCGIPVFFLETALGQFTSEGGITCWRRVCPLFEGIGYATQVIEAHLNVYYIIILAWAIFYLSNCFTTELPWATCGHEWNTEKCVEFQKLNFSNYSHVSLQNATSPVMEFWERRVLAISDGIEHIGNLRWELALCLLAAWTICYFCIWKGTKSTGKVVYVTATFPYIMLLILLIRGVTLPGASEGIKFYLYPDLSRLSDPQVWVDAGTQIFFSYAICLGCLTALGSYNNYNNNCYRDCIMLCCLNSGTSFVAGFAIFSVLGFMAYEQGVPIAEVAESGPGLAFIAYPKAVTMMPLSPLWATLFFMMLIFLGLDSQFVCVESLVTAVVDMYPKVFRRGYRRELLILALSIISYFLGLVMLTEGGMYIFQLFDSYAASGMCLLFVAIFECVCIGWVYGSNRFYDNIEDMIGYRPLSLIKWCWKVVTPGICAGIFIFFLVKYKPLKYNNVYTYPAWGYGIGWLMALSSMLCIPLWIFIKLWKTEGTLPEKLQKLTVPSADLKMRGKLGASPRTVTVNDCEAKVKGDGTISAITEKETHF
Procedure: as §1, §2

mGAT2 = biological target: T4, mGAT2 (Mus musculus, UniProt P31651); test: [^3H]GABA uptake assay, HEK293 cells expressing mGAT2; format: cell-based; conditions: HEK293; in presence of 100 μM compound
T4 construct: expressed in transfected cells; host or cells: HEK293
T4 sequence (P31651 1-614): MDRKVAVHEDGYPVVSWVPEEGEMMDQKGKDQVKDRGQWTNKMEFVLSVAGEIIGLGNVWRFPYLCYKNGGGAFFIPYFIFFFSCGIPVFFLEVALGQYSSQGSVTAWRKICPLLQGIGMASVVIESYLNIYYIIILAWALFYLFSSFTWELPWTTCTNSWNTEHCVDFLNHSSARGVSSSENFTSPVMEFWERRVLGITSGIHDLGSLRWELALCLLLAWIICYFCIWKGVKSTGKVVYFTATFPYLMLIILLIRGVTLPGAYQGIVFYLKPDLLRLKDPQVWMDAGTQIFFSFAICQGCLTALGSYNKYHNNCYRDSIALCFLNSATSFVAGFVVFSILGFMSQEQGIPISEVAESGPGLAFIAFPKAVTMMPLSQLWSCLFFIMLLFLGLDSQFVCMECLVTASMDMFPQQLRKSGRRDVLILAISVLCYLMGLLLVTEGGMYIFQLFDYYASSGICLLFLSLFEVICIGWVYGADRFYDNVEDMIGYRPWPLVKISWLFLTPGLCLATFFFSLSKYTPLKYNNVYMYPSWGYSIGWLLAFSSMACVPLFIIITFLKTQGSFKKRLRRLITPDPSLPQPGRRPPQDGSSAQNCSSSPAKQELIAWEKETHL
Procedure: as §1, §2

mGAT1 [2] = biological target: T1, mGAT1; test: [^3H]GABA uptake assay, HEK293 cells expressing mGAT1; format: cell-based; conditions: HEK293; in presence of 100 μM compound
Procedure: as §1, §2

Structure (SMILES) | Ki (mGAT1 [1]) | IC50 (mGAT3) | IC50 (mGAT4) | remaining activity at 100 µM (mGAT2) | remaining activity at 100 µM (mGAT1 [2]) | remaining activity at 100 µM (mGAT1 [1]) | remaining activity at 100 µM (mGAT3) | remaining activity at 100 µM (mGAT4; in presence of 100 μM compound) | remaining [^3H]GABA uptake mGAT4 (mGAT4; in presence of 100 μM compound)
COc1ccc(C(OCCN2CCCC(C(=O)O)C2)(c2ccc(OC)cc2)c2ccc(C(C)=O)cc2)cc1 (racemic) [5 b, rac ‐1‐{2‐[(4‐Acetylphenyl)bis(4‐methoxyphenyl)methoxy]ethyl}piperidine‐3‐carboxylic acid] | 30.9 µM | 57.5 µM | 3.72 µM | 64.2% | 64.6% |  |  |  | 
COc1ccc(C(OCCN2CCCC(C(=O)O)C2)(c2ccc(OC)cc2)c2ccc(S(=O)(=O)N(C)C)cc2)cc1 (racemic) [5 c, rac ‐1‐(2‐{[4‐(N,N‐dimethylsulfamoyl)phenyl]bis[4‐methoxyphenyl]‐methoxy}ethyl)piperidine‐3‐carboxylic acid] |  |  | > 100 µM | 78% | 67.9% | 62.1% | 77.1% | 82% | 
COc1ccc(C(OCCN2CCCC(C(=O)O)C2)(c2ccc(OC)cc2)c2ccc3nccn3c2)cc1 (racemic) [5 d, rac‐ 1‐(2‐{Imidazo[1,2‐a]pyridin‐6‐ylbis(4‐methoxyphenyl)methoxy}‐ethyl)piperidine‐3‐carboxylic acid] | 93.3 µM |  | 26.3 µM | 72.9% | 84.9% |  | 81.8% |  | 
COc1ccc(C(OCCN2CCCC(C(=O)O)C2)(c2ccc(OC)cc2)c2ccc(C(=O)O)cc2)cc1 (racemic) [5 e, rac ‐1‐{2‐[(4‐Carboxyphenyl)bis(4‐methoxyphenyl)methoxy]ethyl}piper‐idine‐3‐carboxylic acid] |  | 57.5 µM | 13.8 µM | 85.2% | 96.5% | 71.4% |  |  | 
COCc1ccc(C(OCCN2CCCC(C(=O)O)C2)(c2ccc(OC)cc2)c2ccc(OC)cc2)cc1 (racemic) [5 f, rac ‐1‐(2‐{[4‐(Methoxymethyl)phenyl]bis[4‐methoxyphenyl]methoxy}‐ethyl)piperidine‐3‐carboxylic acid] |  | 30.9 µM | 3.8 µM | 72.7% | 67.1% | 89.4% |  |  | 
COc1ccc(C(OCCN2CCCC(C(=O)O)C2)(c2ccc(C#N)cc2)c2ccc(OC)cc2)cc1 (racemic) [5 g, rac ‐1‐{2‐[(4‐Cyanophenyl)bis(4‐methoxyphenyl)methoxy]ethyl}piperidine‐3‐carboxylic acid] | 39.8 µM | 49 µM | 8.51 µM | 82.9% | 74.8% |  |  |  | 
COCc1ccc(C(OCCN2CCCC(C(=O)O)C2)(c2ccc(COC)cc2)c2ccc(OC)cc2)cc1 (racemic) [5 h, rac‐ 1‐(2‐{Bis[4‐(methoxymethyl)phenyl][4‐methoxyphenyl]methoxy}‐ethyl)piperidine‐3‐carboxylic acid] |  |  | 17 µM | 55.2% | 70.5% | 74.1% | 52.2% |  | 
COCc1ccc(C(OCCN2CCCC(C(=O)O)C2)(c2ccc(COC)cc2)c2ccc(COC)cc2)cc1 (racemic) [5 i, rac‐ 1‐(2‐{Tris[4‐(methoxymethyl)phenyl]methoxy}ethyl)piperidine‐3‐carboxylic acid] |  |  |  | 72.6% | 90.7% | 92.7% | 68.3% | 76.1% | 
COc1ccc(C(OCCN2CCCC(C(=O)O)C2)(c2ccc(OC)cc2)c2ccc(C(N)=O)cc2)cc1 (racemic) [5 j, rac ‐1‐{2‐[(4‐Carbamoylphenyl)bis(4‐methoxyphenyl)methoxy]ethyl}‐piperidine‐3‐carboxylic acid] |  |  | > 100 µM | 96.1% | 79.6% | 87% | 82.1% | 65.2% | 
COc1ccc(C(OCCN2CCCC(C(=O)O)C2)(c2ccc(CNc3ccc(C(=O)O)cc3)cc2)c2ccc(OC)cc2)cc1 (racemic) [5 t, rac‐ 1‐{2‐[(4‐{[(4‐Carboxyphenyl)amino]methyl}phenyl)bis(4‐methoxy‐phenyl)methoxy]ethyl}piperidine‐3‐carboxylic acid] |  |  |  |  | 99.5% | 54.1% | 96% | 50% | 50,0%
